Key:
Experiment in all cases: relative viability (nuclei count vs DMSO), 5 days (fraction); higher = more cells survive
[1] = test system: CAL-12T
Outline: (§1)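 Cells from lung cancer lines were seeded into 1536-well plates and, one day later, dosed by pin tool. Treatments were either a single drug or a fixed dose of an anchor drug with five library-drug doses (not always all listed) in √10 steps. After 5 days, nuclei were stained in a one-step fixation (final 0.05% Triton X-100, 1% formaldehyde, 1 ug/ml Hoechst) and counted on 4× images, and relative viability is the treated-to-vehicle nuclei ratio, as the median of duplicate plates.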

[2] = test system: NCI-H1650
Outline: as §1

[3] = test system: A549
Outline: as §1

[4] = test system: IA-LM
Outline: as §1

[5] = test system: A-427
Outline: as §1

[6] = test system: NCI-H1299
Outline: as §1

[7] = test system: NCI-H1703
Outline: as §1

[8] = test system: LK-2
Outline: as §1

[9] = test system: Calu-6
Outline: as §1

[10] = test system: NCI-H1734
Outline: as §1

[11] = test system: UMC-11
Outline: as §1

[12] = test system: NCI-H2009
Outline: as §1

[13] = test system: EBC-1
Outline: as §1

With `COc1cc2nccc(Oc3ccc(NC(=O)Nc4cc(C)on4)c(Cl)c3)c2cc1OC` [Tivozanib] + CS(=O)(=O)CCNCc1ccc(-c2ccc3ncnc(Nc4ccc(OCc5cccc(F)c5)c(Cl)c4)c3c2)o1 [Lapatinib] (partner 2 µM) as the compound, how does the relative viability ([1]; first compound 0.005 µM) read?
Its relative viability is 0.563.

What about the relative viability ([1]; first compound 0.01581 µM) of the same compound?
Its relative viability is 0.752.

And the relative viability ([1]; first compound 0.05 µM)?
The relative viability was 0.666.

What about the relative viability ([1]; first compound 0.5 µM) of the same compound?
The relative viability was 0.784.

And the relative viability ([2]; first compound 0.005 µM)?
Its relative viability is 0.707.

And the relative viability ([2]; first compound 0.01581 µM)?
The relative viability was 0.845.

What about the relative viability ([2]; first compound 0.05 µM) of the same compound?
The relative viability was 0.836.

And the relative viability ([2]; first compound 0.1581 µM)?
The relative viability was 0.717.

And the relative viability ([2]; first compound 0.5 µM)?
Its relative viability is 0.721.

What about the relative viability ([3]; first compound 0.005 µM) of the same compound?
The relative viability was 1.09.

What about the relative viability ([3]; first compound 0.01581 µM) of the same compound?
The relative viability was 0.987.

What about the relative viability ([3]; first compound 0.05 µM) of the same compound?
Its relative viability is 0.944.

What about the relative viability ([3]; first compound 0.1581 µM) of the same compound?
Its relative viability is 1.03.

What about the relative viability ([3]; first compound 0.5 µM) of the same compound?
The relative viability was 0.913.

What about the relative viability ([4]; first compound 0.01581 µM) of the same compound?
The relative viability was 0.564.

What about the relative viability ([4]; first compound 0.05 µM) of the same compound?
The relative viability was 0.771.

What about the relative viability ([4]; first compound 0.1581 µM) of the same compound?
Its relative viability is 0.582.

What about the relative viability ([4]; first compound 0.5 µM) of the same compound?
The relative viability was 0.56.

And the relative viability ([5]; first compound 0.005 µM)?
Its relative viability is 1.02.

And the relative viability ([5]; first compound 0.01581 µM)?
Its relative viability is 1.04.

What about the relative viability ([5]; first compound 0.05 µM) of the same compound?
The relative viability was 1.04.

What about the relative viability ([5]; first compound 0.1581 µM) of the same compound?
The relative viability was 0.96.

What about the relative viability ([5]; first compound 0.5 µM) of the same compound?
Its relative viability is 1.06.

And the relative viability ([6]; first compound 0.005 µM)?
Its relative viability is 0.921.

What about the relative viability ([6]; first compound 0.01581 µM) of the same compound?
Its relative viability is 1.03.

And the relative viability ([6]; first compound 0.05 µM)?
Its relative viability is 0.933.

And the relative viability ([6]; first compound 0.1581 µM)?
The relative viability was 0.936.

And the relative viability ([6]; first compound 0.5 µM)?
The relative viability was 0.917.

And the relative viability ([7]; first compound 0.005 µM)?
The relative viability was 0.44.

And the relative viability ([7]; first compound 0.01581 µM)?
The relative viability was 0.255.

What about the relative viability ([7]; first compound 0.05 µM) of the same compound?
The relative viability was 0.271.

What about the relative viability ([7]; first compound 0.1581 µM) of the same compound?
The relative viability was 0.305.

And the relative viability ([7]; first compound 0.5 µM)?
The relative viability was 0.259.

What about the relative viability ([8]; first compound 0.005 µM) of the same compound?
The relative viability was 0.951.

And the relative viability ([8]; first compound 0.01581 µM)?
Its relative viability is 0.842.

What about the relative viability ([8]; first compound 0.05 µM) of the same compound?
Its relative viability is 0.918.

And the relative viability ([8]; first compound 0.1581 µM)?
Its relative viability is 0.742.

And the relative viability ([8]; first compound 0.5 µM)?
The relative viability was 0.683.

What about the relative viability ([9]; first compound 0.005 µM) of the same compound?
Its relative viability is 1.01.

And the relative viability ([9]; first compound 0.01581 µM)?
The relative viability was 1.08.

And the relative viability ([9]; first compound 0.05 µM)?
The relative viability was 1.07.

And the relative viability ([9]; first compound 0.1581 µM)?
The relative viability was 1.13.

What about the relative viability ([9]; first compound 0.5 µM) of the same compound?
The relative viability was 1.14.

What about the relative viability ([10]; first compound 0.005 µM) of the same compound?
The relative viability was 1.03.

What about the relative viability ([10]; first compound 0.01581 µM) of the same compound?
The relative viability was 1.05.

And the relative viability ([10]; first compound 0.05 µM)?
Its relative viability is 1.17.

What about the relative viability ([10]; first compound 0.1581 µM) of the same compound?
The relative viability was 0.814.

And the relative viability ([10]; first compound 0.5 µM)?
The relative viability was 1.01.

What about the relative viability ([11]; first compound 0.005 µM) of the same compound?
The relative viability was 0.901.

What about the relative viability ([11]; first compound 0.01581 µM) of the same compound?
The relative viability was 0.983.

What about the relative viability ([11]; first compound 0.05 µM) of the same compound?
Its relative viability is 1.01.

What about the relative viability ([11]; first compound 0.5 µM) of the same compound?
Its relative viability is 0.839.

What about the relative viability ([12]; first compound 0.005 µM) of the same compound?
The relative viability was 0.88.

What about the relative viability ([12]; first compound 0.01581 µM) of the same compound?
Its relative viability is 1.1.

What about the relative viability ([12]; first compound 0.05 µM) of the same compound?
The relative viability was 0.937.

And the relative viability ([12]; first compound 0.1581 µM)?
The relative viability was 0.896.

And the relative viability ([12]; first compound 0.5 µM)?
The relative viability was 0.909.

And the relative viability ([13]; first compound 0.005 µM)?
Its relative viability is 0.231.

What about the relative viability ([13]; first compound 0.01581 µM) of the same compound?
The relative viability was 0.216.

What about the relative viability ([13]; first compound 0.05 µM) of the same compound?
The relative viability was 0.172.

And the relative viability ([13]; first compound 0.1581 µM)?
Its relative viability is 0.209.

What about the relative viability ([13]; first compound 0.5 µM) of the same compound?
The relative viability was 0.204.

Which relative viability ([1]; first compound 0.005 µM) does the source give for `COc1cc2nccc(Oc3ccc(NC(=O)Nc4cc(C)on4)c(Cl)c3)c2cc1OC` [Tivozanib] + C[C@@H](Oc1cc(-c2cnn(C3CCNCC3)c2)cnc1N)c1c(Cl)ccc(F)c1Cl [Crizotinib] (partner 1 µM) here?
The relative viability was 0.649.

What about the relative viability ([1]; first compound 0.01581 µM) of the same compound?
Its relative viability is 0.552.

What about the relative viability ([1]; first compound 0.05 µM) of the same compound?
Its relative viability is 0.568.

And the relative viability ([1]; first compound 0.5 µM)?
Its relative viability is 0.614.

And the relative viability ([2]; first compound 0.005 µM)?
Its relative viability is 0.919.

What about the relative viability ([2]; first compound 0.01581 µM) of the same compound?
The relative viability was 1.13.

And the relative viability ([2]; first compound 0.05 µM)?
Its relative viability is 0.952.

And the relative viability ([2]; first compound 0.1581 µM)?
The relative viability was 1.09.

What about the relative viability ([2]; first compound 0.5 µM) of the same compound?
Its relative viability is 0.866.

And the relative viability ([3]; first compound 0.005 µM)?
Its relative viability is 0.765.

And the relative viability ([3]; first compound 0.01581 µM)?
The relative viability was 0.793.

And the relative viability ([3]; first compound 0.05 µM)?
Its relative viability is 0.694.

What about the relative viability ([3]; first compound 0.1581 µM) of the same compound?
The relative viability was 0.828.

And the relative viability ([3]; first compound 0.5 µM)?
The relative viability was 0.652.

What about the relative viability ([4]; first compound 0.01581 µM) of the same compound?
The relative viability was 0.716.

What about the relative viability ([4]; first compound 0.05 µM) of the same compound?
Its relative viability is 1.04.

And the relative viability ([4]; first compound 0.1581 µM)?
Its relative viability is 0.507.

What about the relative viability ([4]; first compound 0.5 µM) of the same compound?
Its relative viability is 0.494.

And the relative viability ([5]; first compound 0.005 µM)?
The relative viability was 0.82.

What about the relative viability ([5]; first compound 0.01581 µM) of the same compound?
The relative viability was 0.84.

And the relative viability ([5]; first compound 0.05 µM)?
The relative viability was 0.986.

What about the relative viability ([5]; first compound 0.1581 µM) of the same compound?
Its relative viability is 0.818.

And the relative viability ([5]; first compound 0.5 µM)?
Its relative viability is 0.827.

What about the relative viability ([6]; first compound 0.005 µM) of the same compound?
The relative viability was 0.922.

And the relative viability ([6]; first compound 0.01581 µM)?
Its relative viability is 0.971.

And the relative viability ([6]; first compound 0.05 µM)?
The relative viability was 0.968.

What about the relative viability ([6]; first compound 0.1581 µM) of the same compound?
Its relative viability is 0.991.

And the relative viability ([6]; first compound 0.5 µM)?
Its relative viability is 0.906.

And the relative viability ([7]; first compound 0.005 µM)?
The relative viability was 0.239.

What about the relative viability ([7]; first compound 0.01581 µM) of the same compound?
The relative viability was 0.194.

And the relative viability ([7]; first compound 0.05 µM)?
Its relative viability is 0.163.

And the relative viability ([7]; first compound 0.1581 µM)?
Its relative viability is 0.157.

And the relative viability ([7]; first compound 0.5 µM)?
The relative viability was 0.155.

What about the relative viability ([8]; first compound 0.005 µM) of the same compound?
Its relative viability is 0.253.

And the relative viability ([8]; first compound 0.01581 µM)?
The relative viability was 0.264.

What about the relative viability ([8]; first compound 0.05 µM) of the same compound?
The relative viability was 0.221.

What about the relative viability ([8]; first compound 0.1581 µM) of the same compound?
Its relative viability is 0.198.

What about the relative viability ([8]; first compound 0.5 µM) of the same compound?
The relative viability was 0.22.

What about the relative viability ([9]; first compound 0.005 µM) of the same compound?
The relative viability was 0.778.

What about the relative viability ([9]; first compound 0.01581 µM) of the same compound?
Its relative viability is 0.772.

What about the relative viability ([9]; first compound 0.05 µM) of the same compound?
Its relative viability is 0.706.

And the relative viability ([9]; first compound 0.1581 µM)?
The relative viability was 0.839.

What about the relative viability ([9]; first compound 0.5 µM) of the same compound?
The relative viability was 0.711.

And the relative viability ([10]; first compound 0.005 µM)?
The relative viability was 0.616.

And the relative viability ([10]; first compound 0.01581 µM)?
Its relative viability is 0.63.

And the relative viability ([10]; first compound 0.05 µM)?
Its relative viability is 0.682.

What about the relative viability ([10]; first compound 0.1581 µM) of the same compound?
Its relative viability is 0.574.

And the relative viability ([10]; first compound 0.5 µM)?
Its relative viability is 0.565.

And the relative viability ([11]; first compound 0.005 µM)?
Its relative viability is 0.656.

And the relative viability ([11]; first compound 0.01581 µM)?
Its relative viability is 0.603.

What about the relative viability ([11]; first compound 0.05 µM) of the same compound?
The relative viability was 0.649.

What about the relative viability ([11]; first compound 0.5 µM) of the same compound?
The relative viability was 0.536.

And the relative viability ([12]; first compound 0.005 µM)?
The relative viability was 1.08.

And the relative viability ([12]; first compound 0.01581 µM)?
Its relative viability is 1.02.

What about the relative viability ([12]; first compound 0.05 µM) of the same compound?
The relative viability was 1.1.

What about the relative viability ([12]; first compound 0.1581 µM) of the same compound?
The relative viability was 1.03.

And the relative viability ([12]; first compound 0.5 µM)?
The relative viability was 0.933.

What about the relative viability ([13]; first compound 0.005 µM) of the same compound?
The relative viability was 0.182.

What about the relative viability ([13]; first compound 0.01581 µM) of the same compound?
The relative viability was 0.186.

And the relative viability ([13]; first compound 0.05 µM)?
The relative viability was 0.211.

What about the relative viability ([13]; first compound 0.1581 µM) of the same compound?
Its relative viability is 0.207.

What about the relative viability ([13]; first compound 0.5 µM) of the same compound?
The relative viability was 0.192.
